The assay has as its target FXR (Homo sapiens (Human), UniProt Q96RI1). Description: transient human FXR/Gal4-luciferase reporter assay. Type of assay: cell-based. The method in brief: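 HEK293 cells stably carrying a 5×Gal4 response element–firefly luciferase reporter were transiently transfected overnight with a Gal4 DBD–human FXR LBD fusion plasmid. Compound was added in DMSO and cells were incubated overnight at 37 °C, 5% CO2. Activity was read as Steady-Glo luminescence.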
(In a reporter assay the amount or activity of a reporter protein is the signal.)

The mark [1] stands for this setting: Gal4-hFXR fusion construct, HEK293 reporter cells, response relative to 8 μM GW-4064.

The structures appear in SMILES notation. Read-outs that look alike come from different tables or passages of the source.

FXR, sequence (Q96RI1 262-486): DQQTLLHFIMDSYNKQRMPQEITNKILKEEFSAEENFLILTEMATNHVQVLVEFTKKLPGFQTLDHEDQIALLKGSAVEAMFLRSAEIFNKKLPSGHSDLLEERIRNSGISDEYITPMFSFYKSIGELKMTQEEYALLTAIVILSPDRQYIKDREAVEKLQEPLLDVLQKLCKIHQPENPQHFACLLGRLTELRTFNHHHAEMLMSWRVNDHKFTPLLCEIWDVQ

The term EC50 denotes the concentration giving half of the maximal effect. Read a high EC50 as weaker potency. Compound `CC(C)(C)c1noc(C23CCC(CN(C(=O)C45CC(F)(C4)C5)c4cccc(-c5cnc(NS(C)(=O)=O)nc5)c4)(CC2)CC3)n1` [Example 367, N-((4-(3-(tert-butyl)-1,2,4-oxadiazol-5-yl)bicyclo[2.2.2]octan-1-yl)methyl)-3-fluoro-N-(3-(2-(methylsulfonamido)pyrimidin-5-yl)phenyl)bicyclo[1.1.1]pentane-1-carboxamide] came in with a concentration for a half-maximal effect (EC50) under setting [1] of 0.645 µM.
As to `CC(C)(C)c1noc(C23CCC(CN(C(=O)C45CC(F)(C4)C5)c4cccc(-c5ccc(NS(C)(=O)=O)cc5)c4)(CC2)CC3)n1` [Example 361, N-((4-(3-(tert-butyl)-1,2,4-oxadiazol-5-yl)bicyclo[2.2.2]octan-1-yl)methyl)-3-fluoro-N-(4′-(methylsulfonamido)-[1,1′-biphenyl]-3-yl)bicyclo[1.1.1]pentane-1-carboxamide], the EC50 under setting [1] turned out to be 0.843 µM.
The same measure, in the same setting: the same measure for `CC(C)(O)c1ccc(-c2ccnc(N(CC34CCC(c5ccc(C(C)(F)F)cn5)(CC3)CC4)C(=O)OC(C)(C)C(F)(F)F)c2)nc1` [Example 607, 1,1,1-trifluoro-2-methylpropan-2-yl ((4-(5-(1,1-difluoroethyl)pyridin-2-yl)bicyclo[2.2.2]octan-1-yl)methyl)(5-(2-hydroxypropan-2-yl)-[2,4′-bipyridin]-2′-yl)carbamate]: 0.096 µM; for `O=C(N(CC12CCC(c3nc(C4CC4)no3)(CC1)CC2)c1cccc(-c2cccn3ccnc23)c1)C12CC(F)(C1)C2` [Example 330, N-((4-(3-cyclopropyl-1,2,4-oxadiazol-5-yl)bicyclo[2.2.2]octan-1-yl)methyl)-3-fluoro-N-(3-(imidazo[1,2-a]pyridin-8-yl)phenyl)bicyclo[1.1.1]pentane-1-carboxamide]: 0.392 µM.
Same read-out and setting: the same measure for `Cc1nc2ccc(-c3cccc(N(CC45CCC(c6cnc(C(F)(F)F)nc6)(CC4)OC5)C(=O)C45CC(F)(C4)C5)c3)cc2s1` [Example 421, 3-fluoro-N-(3-(2-methylbenzo[d]thiazol-6-yl)phenyl)-N-((1-(2-(trifluoromethyl)pyrimidin-5-yl)-2-oxabicyclo[2.2.2]octan-4-yl)methyl)bicyclo[1.1.1]pentane-1-carboxamide]: 2.17 µM; for `O=C(N(CC12CCC(c3nc(C4CC4)no3)(CC1)CC2)c1cccc(-c2nc3cc(F)ccc3o2)c1)C12CC(F)(C1)C2` [Example 559, N-((4-(3-Cyclopropyl-1,2,4-oxadiazol-5-yl)bicyclo[2.2.2]octan-1-yl)methyl)-3-fluoro-N-(3-(5-fluorobenzo[d]oxazol-2-yl)phenyl)bicyclo[1.1.1]pentane-1-carboxamide]: 0.217 µM.
Regarding `O=C(N(CC12CCC(c3nc(C4CC4)no3)(CC1)CC2)c1cccc(-c2ccc(NS(=O)(=O)C(F)(F)F)cc2)c1)C12CC(F)(C1)C2` [Example 267, N-((4-(3-cyclopropyl-1,2,4-oxadiazol-5-yl)bicyclo[2.2.2]octan-1-yl)methyl)-3-fluoro-N-(4′-((trifluoromethyl)sulfonamido)-[1,1′-biphenyl]-3-yl)bicyclo[1.1.1]pentane-1-carboxamide], the concentration for a half-maximal effect (EC50) under setting [1] turned out to be 0.046 µM.
For `CC(C)(O)c1ccc(-c2cccc(N(CC34CCC(c5noc(C(C)(C)F)n5)(CC3)CC4)C(=O)N[C@H]3CC[C@](C)(O)CC3)c2)cc1` [Example 599, 1-((4-(5-(2-fluoropropan-2-yl)-1,2,4-oxadiazol-3-yl)bicyclo[2.2.2]octan-1-yl)methyl)-3-((trans)-4-hydroxy-4-methylcyclohexyl)-1-(4′-(2-hydroxypropan-2-yl)-[1,1′-biphenyl]-3-yl)urea], the midpoint of the response under setting [1], the EC50, lay at 0.03 µM.
With `Cc1nc2ccc(-c3cccc(N(CC45CCC(c6nc(C(F)F)no6)(CC4)CC5)C(=O)C45CC(F)(C4)C5)c3)cc2s1` [Example 471, N-((4-(3-(difluoromethyl)-1,2,4-oxadiazol-5-yl)bicyclo[2.2.2]octan-1-yl)methyl)-3-fluoro-N-(3-(2-methylbenzo[d]thiazol-6-yl)phenyl)bicyclo[1.1.1]pentane-1-carboxamide], a half-maximal response (EC50) required 0.135 µM.
For `CC(C)(OC(=O)N(CC12CCC(c3nc(C4CC4)no3)(CC1)CC2)c1nccc(C23CCC(C#N)(CC2)CC3)n1)C(F)(F)F` [Example 665, 1,1,1-trifluoro-2-methylpropan-2-yl (4-(4-cyanobicyclo[2.2.2]octan-1-yl)pyrimidin-2-yl)((4-(3-cyclopropyl-1,2,4-oxadiazol-5-yl)bicyclo[2.2.2]octan-1-yl)methyl)carbamate], a half-maximal response under setting [1] (EC50) required 2 µM.
`CC(C)(C)c1nc(C23CCC(CN(C(=O)C45CC(F)(C4)C5)c4cncc(-c5ccc6[nH]c(=O)oc6c5)c4)(CC2)CC3)no1` [Example 479, N-((4-(5-(tert-butyl)-1,2,4-oxadiazol-3-yl)bicyclo[2.2.2]octan-1-yl)methyl)-3-fluoro-N-(5-(2-oxo-2,3-dihydrobenzo[d]oxazol-6-yl)pyridin-3-yl)bicyclo[1.1.1]pentane-1-carboxamide] showed an EC50 of 0.367 µM.
Consider `CC(F)(F)c1nc(C23CCC(CN(C(=O)C45CC(F)(C4)C5)c4cccc(-c5ccc(OC(F)F)cc5)c4)(CC2)CC3)no1` [Example 528, N-((4-(5-(1,1-difluoroethyl)-1,2,4-oxadiazol-3-yl)bicyclo[2.2.2]octan-1-yl)methyl)-N-(4′-(difluoromethoxy)-[1,1′-biphenyl]-3-yl)-3-fluorobicyclo[1.1.1]pentane-1-carboxamide], for which the EC50 amounted to 0.073 µM.
Compound `O=C(N(CC12CCC(c3ccc(C(F)(F)F)cn3)(CC1)CC2)c1cccc(-c2ncc(OC(F)F)cn2)c1)C12CC(F)(C1)C2` [Example 499, N-(3-(5-(difluoromethoxy)pyrimidin-2-yl)phenyl)-3-fluoro-N-((4-(5-(trifluoromethyl)pyridin-2-yl)bicyclo[2.2.2]octan-1-yl)methyl)bicyclo[1.1.1]pentane-1-carboxamide] yielded an EC50 of 0.135 µM.
In the case of `CC(C)(C)c1nc(C23CCC(CN(C(=O)C45CC(F)(C4)C5)c4cccc(-c5cnc(C6CC6)nc5)c4)(CC2)CC3)no1` [Example 442, N-((4-(5-(tert-butyl)-1,2,4-oxadiazol-3-yl)bicyclo[2.2.2]octan-1-yl)methyl)-N-(3-(2-cyclopropylpyrimidin-5-yl)phenyl)-3-fluorobicyclo[1.1.1]pentane-1-carboxamide], under setting [1], the half-maximal effective concentration (EC50) stood at 0.071 µM.
Turning to `Cc1nc2ccc(-c3cccc(N(CC45CCC(c6nc(C7CC7)no6)(CC4)CC5)C(=O)C45CC(F)(C4)C5)c3)cn2n1` [Example 324, N-((4-(3-cyclopropyl-1,2,4-oxadiazol-5-yl)bicyclo[2.2.2]octan-1-yl)methyl)-3-fluoro-N-(3-(2-methyl-[1,2,4]triazolo[1,5-a]pyridin-6-yl)phenyl)bicyclo[1.1.1]pentane-1-carboxamide], under setting [1], the 50% effective concentration (EC50) turned out to be 0.25 µM.
The compound `CCOc1ccc(-c2ccnc(N(CC34CCC(c5noc(C(C)(C)C)n5)(CC3)CC4)C(=O)C34CC(F)(C3)C4)c2)cn1` [Example 536, N-((4-(5-(tert-butyl)-1,2,4-oxadiazol-3-yl)bicyclo[2.2.2]octan-1-yl)methyl)-N-(6-ethoxy-[3,4′-bipyridin]-2′-yl)-3-fluorobicyclo[1.1.1]pentane-1-carboxamide] displayed an EC50 of 0.029 µM.
For the compound `CC(F)(F)c1nc(C23CCC(CN(C(=O)C45CC(F)(C4)C5)c4cccc(-c5cnc6nc(C7CC7)sc6c5)c4)(CC2)CC3)no1` [Example 530, N-(3-(2-cyclopropylthiazolo[4,5-b]pyridin-6-yl)phenyl)-N-((4-(5-(1,1-difluoroethyl)-1,2,4-oxadiazol-3-yl)bicyclo[2.2.2]octan-1-yl)methyl)-3-fluorobicyclo[1.1.1]pentane-1-carboxamide], the concentration giving a half-maximal response (EC50) was 0.145 µM.
Take `CC(C)Oc1ccc(-c2cc(N(CC34CCC(c5nc(C6CC6)no5)(CC3)CC4)C(=O)OC(C)(C)C(F)(F)F)ncc2F)cc1` [Example 617, 1,1,1-trifluoro-2-methylpropan-2-yl ((4-(3-cyclopropyl-1,2,4-oxadiazol-5-yl)bicyclo[2.2.2]octan-1-yl)methyl)(5-fluoro-4-(4-isopropoxyphenyl)pyridin-2-yl)carbamate]: the EC50 under setting [1] amounted to 0.081 µM.
Turning to `Cc1nc2c(C)cc(-c3cccc(N(CC45CCC(c6nc(C7CC7)no6)(CC4)CC5)C(=O)C45CC(F)(C4)C5)c3)cn2n1` [Example 265, N-((4-(3-cyclopropyl-1,2,4-oxadiazol-5-yl)bicyclo[2.2.2]octan-1-yl)methyl)-N-(3-(2,8-dimethyl-[1,2,4]triazolo[1,5-a]pyridin-6-yl)phenyl)-3-fluorobicyclo[1.1.1]pentane-1-carboxamide], the midpoint of the response under setting [1], the EC50, lay at 0.51 µM.
`CC(C)(O)c1ccc(-c2cccc(N(CC34CCC(c5noc(C(C)(C)F)n5)(CC3)CC4)C(=O)NC3CCC(O)(C(F)(F)F)CC3)c2)cc1` (single isomer, unassigned) [Example 601, 1-((4-(5-(2-fluoropropan-2-yl)-1,2,4-oxadiazol-3-yl)bicyclo[2.2.2]octan-1-yl)methyl)-3-(4-hydroxy-4-(trifluoromethyl)cyclohexyl)-1-(4′-(2-hydroxypropan-2-yl)-[1,1′-biphenyl]-3-yl) urea]: the EC50 under setting [1] was 0.246 µM.
Still for that read-out and setting: the same measure for `COc1ncc(-c2cccc(N(CC34CCC(c5nc(C(C)C)no5)(CC3)CC4)C(=O)C34CC(F)(C3)C4)c2)cn1` [Example 383, 3-Fluoro-N-((4-(3-isopropyl-1,2,4-oxadiazol-5-yl)bicyclo[2.2.2]octan-1-yl)methyl)-N-(3-(2-methoxypyrimidin-5-yl)phenyl)bicyclo[1.1.1]pentane-1-carboxamide]: 0.047 µM.
The same measure, in the same setting: the same measure for `N#Cc1cc(-c2cccc(N(CC34CCC(c5nc(C6CC6)no5)(CC3)CC4)C(=O)C34CC(F)(C3)C4)c2)ccc1F` [Example 294, N-(3′-cyano-4′-fluoro-[1,1′-biphenyl]-3-yl)-N-((4-(3-cyclopropyl-1,2,4-oxadiazol-5-yl)bicyclo[2.2.2]octan-1-yl)methyl)-3-fluorobicyclo[1.1.1]pentane-1-carboxamide]: 0.579 µM.

For the origin of these results see patent publication US11254663B2 (BRISTOL-MYERS SQUIBB COMPANY, priority 2019, dated 2022).
